# pIC50: −log10 of the molar value.
# Experiments:
# [1] = target: Recombinant purified human BTK (Homo sapiens (Human), UniProt Q06187); assay: BTK kinase inhibitory activity, ADP-Glo kinase assay kit (Promega V9071); format: biochemical; conditions: ATP 10 uM, 8 ng BTK per reaction, 1 hour at 30° C., chemiluminescence
# Description: (§1) JAK3 and BTK kinase inhibitory activities were measured for the compounds prepared in the above Examples through in vitro analysis on the ADP Glow (Glo) platform.
# (§2) Specifically, the inhibitory activities of JAK3 and BTK kinase were measured using a JAK3 kinase assay kit (Promega, V9441) and a BTK kinase assay kit (Promega, V9071) which were purchased from Promega. Recombinant purified human JAK3 and BTK were diluted with 1× kinase reaction buffer (JAK3: 40 mM Tris-Cl, pH 7.5, 20 mM MgCl2, 0.1 mg/mL BSA and 50 uM DTT/BTK: 40 mM Tris-Cl, pH 7.5, 20 mM MgCl2, 0.1 mg/mL BSA, 2 mM MnCl2 and 50 uM DTT) and added to a 96 well plate (JAK3: final concentration of 4 ng per reaction/BTK: final concentration of 8 ng per reaction). […] After incubation (30° C.) for 1 hour, equivalent volume (25 uL per reaction) of ADP Glo was added and incubated (30° C.) for 40 minutes at room temperature. Then, a kinase detection reagent (50 uL per reaction) was added and incubated (30° C.) for 30 minutes at room temperature. The kinase activity was measured by chemiluminescence according to the instructions of ADP Glo kinase assay kit, and the inhibitory activity of the compounds according to the present invention was calculated.
# [2] = target: Recombinant purified human JAK3 (Homo sapiens (Human), UniProt P52333); assay: JAK3 kinase inhibitory activity, ADP-Glo kinase assay kit (Promega V9441); format: biochemical; conditions: ATP 5 uM, 4 ng JAK3 per reaction, 1 hour at 30° C., chemiluminescence
# Description: as §1, §2
# Sequence of Recombinant purified human BTK (Q06187 whole entry): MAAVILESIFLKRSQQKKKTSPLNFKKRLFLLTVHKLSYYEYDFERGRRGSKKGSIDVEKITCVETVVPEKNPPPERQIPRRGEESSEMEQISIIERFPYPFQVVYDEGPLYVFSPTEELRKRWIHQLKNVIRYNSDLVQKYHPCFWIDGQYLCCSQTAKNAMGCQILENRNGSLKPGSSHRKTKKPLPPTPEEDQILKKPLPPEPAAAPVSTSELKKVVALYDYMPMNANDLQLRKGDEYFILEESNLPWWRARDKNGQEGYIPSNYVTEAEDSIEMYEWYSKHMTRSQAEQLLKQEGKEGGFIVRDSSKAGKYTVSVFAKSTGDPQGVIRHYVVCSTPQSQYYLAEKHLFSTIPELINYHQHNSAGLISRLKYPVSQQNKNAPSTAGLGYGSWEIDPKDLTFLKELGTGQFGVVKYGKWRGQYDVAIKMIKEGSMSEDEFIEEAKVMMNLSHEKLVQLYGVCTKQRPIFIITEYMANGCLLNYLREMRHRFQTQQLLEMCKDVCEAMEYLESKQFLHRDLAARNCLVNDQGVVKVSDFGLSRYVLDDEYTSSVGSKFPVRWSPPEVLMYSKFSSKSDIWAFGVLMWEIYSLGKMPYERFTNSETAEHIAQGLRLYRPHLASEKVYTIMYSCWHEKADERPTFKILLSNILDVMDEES
# Sequence of Recombinant purified human JAK3 (P52333 whole entry): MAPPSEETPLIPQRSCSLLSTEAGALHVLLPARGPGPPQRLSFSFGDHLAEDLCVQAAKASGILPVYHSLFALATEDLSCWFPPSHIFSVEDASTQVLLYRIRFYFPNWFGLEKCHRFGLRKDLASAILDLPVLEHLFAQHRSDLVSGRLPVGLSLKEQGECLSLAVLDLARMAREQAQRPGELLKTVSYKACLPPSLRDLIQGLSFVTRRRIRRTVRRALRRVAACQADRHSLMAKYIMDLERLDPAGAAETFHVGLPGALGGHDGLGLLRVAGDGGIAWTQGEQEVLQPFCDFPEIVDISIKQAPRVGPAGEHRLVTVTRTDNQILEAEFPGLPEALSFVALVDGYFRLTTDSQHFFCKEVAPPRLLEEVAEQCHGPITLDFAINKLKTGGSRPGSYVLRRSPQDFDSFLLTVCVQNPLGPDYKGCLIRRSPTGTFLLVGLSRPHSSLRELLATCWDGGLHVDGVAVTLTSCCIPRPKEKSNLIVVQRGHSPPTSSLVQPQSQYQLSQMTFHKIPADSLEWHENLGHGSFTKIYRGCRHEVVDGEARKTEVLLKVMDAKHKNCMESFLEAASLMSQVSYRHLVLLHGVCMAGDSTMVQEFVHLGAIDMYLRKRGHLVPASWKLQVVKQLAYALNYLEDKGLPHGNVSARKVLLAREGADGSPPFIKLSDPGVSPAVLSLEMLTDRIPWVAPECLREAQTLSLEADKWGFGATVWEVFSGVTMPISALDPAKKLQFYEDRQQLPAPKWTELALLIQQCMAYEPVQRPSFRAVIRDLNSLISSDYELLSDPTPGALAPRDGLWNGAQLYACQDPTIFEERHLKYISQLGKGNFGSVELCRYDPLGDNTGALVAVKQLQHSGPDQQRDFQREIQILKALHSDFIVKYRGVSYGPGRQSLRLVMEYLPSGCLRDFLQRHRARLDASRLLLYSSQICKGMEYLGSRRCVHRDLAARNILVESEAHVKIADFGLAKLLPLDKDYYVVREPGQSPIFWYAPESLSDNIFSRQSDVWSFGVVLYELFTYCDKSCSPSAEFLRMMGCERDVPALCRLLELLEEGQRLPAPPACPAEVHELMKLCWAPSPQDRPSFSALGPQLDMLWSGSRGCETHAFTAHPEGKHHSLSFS
Structure (SMILES),pIC50 [1],pIC50 [2]
"C=CC(=O)Nc1ccc(F)c(Oc2nc(Nc3ccc(N4CCOCC4)cc3)nn3cccc23)c1 [Example 31, N-(4-fluoro-3-((2-((4-morpholinophenyl)amino)pyrrolo[2,1-f][1,2,4]triazin-4-yl)oxy)phenyl)acrylamide]",7.56,8.35
"C=CC(=O)Nc1ccc(F)c(Oc2nc(Nc3cnn(CCC)c3)nn3cccc23)c1 [Example 32, N-(4-fluoro-3-((2-((1-propyl-1H-pyrazol-4-yl)amino)pyrrolo[2,1-f][1,2,4]triazin-4-yl)oxy)phenyl)acrylamide]",8.04,8.85
"C=CC(=O)Nc1ccc(F)c(Oc2nc(Nc3cnn(C(F)F)c3)nn3cccc23)c1 [Example 33, N-(3-((2-((1-(difluoromethyl)-1H-pyrazol-4-yl)amino)pyrrolo[2,1-f][1,2,4]triazin-4-yl)oxy)-4-fluorophenyl)acrylamide]",7.82,8.55
"C=CC(=O)Nc1ccc(F)c(Oc2nc(Nc3cnn(C4CCOCC4)c3)nn3cccc23)c1 [Example 34, N-(4-fluoro-3-((2-((1-(tetrahydro-2H-pyran-4-yl)-1H-pyrazol-4-yl)amino)pyrrolo[2,1-f][1,2,4]triazin-4-yl)oxy)phenyl)acrylamide]",8.62,9.30
"C=CC(=O)Nc1ccc(F)c(Oc2nc(Nc3cnn(CCN4CCOCC4)c3)nn3cccc23)c1 [Example 35, N-(4-fluoro-3-((2-((1-(2-morpholinoethyl)-1H-pyrazol-4-yl)amino)pyrrolo[2,1-f][1,2,4]triazin-4-yl)oxy)phenyl)acrylamide]",8.46,9.15
"C=CC(=O)Nc1ccc(F)c(Oc2nc(Nc3cnn(C(C)C)c3)nn3cccc23)c1 [Example 36, N-(4-fluoro-3-((2-((1-isopropyl-1H-pyrazol-4-yl)amino)pyrrolo[2,1-f][1,2,4]triazin-4-yl)oxy)phenyl)acrylamide]",8.36,8.96
"C=CC(=O)Nc1ccc(F)c(Oc2nc(Nc3cnn(C4CCNCC4)c3)nn3cccc23)c1 [Example 37, N-(4-fluoro-3-((2-((1-(piperidin-4-yl)-1H-pyrazol-4-yl)amino)pyrrolo[2,1-f][1,2,4]triazin-4-yl)oxy)phenyl)acrylamide]",7.20,7.94
"C=CC(=O)Nc1ccc(F)c(Oc2nc(Nc3cnn(CC(F)(F)F)c3)nn3cccc23)c1 [Example 38, N-(4-fluoro-3-((2-((1-(2,2,2-trifluoroethyl)-1H-pyrazol-4-yl)amino)pyrrolo[2,1-f][1,2,4]triazin-4-yl)oxy)phenyl)acrylamide]",7.78,8.74
"C=CC(=O)Nc1ccc(F)c(Oc2nc(Nc3ccc(-n4nc(C)cc4C)cc3)nn3cccc23)c1 [Example 39, N-(3-((2-((4-(3,5-dimethyl-1H-pyrazol-1-yl)phenyl)amino)pyrrolo[2,1-f][1,2,4]triazin-4-yl)oxy)-4-fluorophenyl)acrylamide]",6.95,7.63
"C=CC(=O)Nc1ccc(F)c(Oc2nc(Nc3cnn(CCOC)c3)nn3cccc23)c1 [Example 40, N-(4-fluoro-3-((2-((1-(2-methoxyethyl)-1H-pyrazol-4-yl)amino)pyrrolo[2,1-f][1,2,4]triazin-4-yl)oxy)phenyl)acrylamide]",7.64,8.55
"O=C(CCl)Nc1ccc(F)c(Oc2nc(Nc3cnn(CC(F)F)c3)nn3cccc23)c1 [Example 41, 2-chloro-N-(3-((2-((1-(2,2-difluoroethyl)-1H-pyrazol-4-yl)amino)pyrrolo[2,1-f][1,2,4]triazin-4-yl)oxy)-4-fluorophenyl)acetamide]",8.92,9.15
"O=C(CCl)Nc1ccc(F)c(Oc2nc(Nc3cnn(C4CCOCC4)c3)nn3cccc23)c1 [Example 42, 2-chloro-N-(4-fluoro-3-((2-((1-(tetrahydro-2H-pyran-4-yl)-1H-pyrazol-4-yl)amino)pyrrolo[2,1-f][1,2,4]triazin-4-yl)oxy)phenyl)acetamide]",8.89,9.30
"CCn1cc(Nc2nc(Oc3cc(NC(=O)CCl)ccc3F)c3cccn3n2)cn1 [Example 43, 2-chloro-N-(3-((2-((1-ethyl-1H-pyrazol-4-yl)amino)pyrrolo[2,1-f][1,2,4]triazin-4-yl)oxy)-4-fluorophenyl)acetamide]",8.92,9.15
"CCn1cc(Nc2nc(Oc3cc(NC(=O)/C=C/CCl)ccc3F)c3cccn3n2)cn1 [Example 44, (E)-4-chloro-N-(3-((2-((1-ethyl-1H-pyrazol-4-yl)amino)pyrrolo[2,1-f][1,2,4]triazin-4-yl)oxy)-4-fluorophenyl)but-2-enamide]",6.94,7.00
"C=CC(=O)Nc1ccc(F)c(Oc2nc(Nc3cnoc3)nn3cccc23)c1 [Example 45, N-(4-fluoro-3-(2-(isoxazol-4-ylamino)pyrrolo[2,1-f][1,2,4]triazin-4-yloxy)phenyl)acrylamide]",6.69,7.49
"C=CC(=O)Nc1ccc(Cl)c(Oc2nc(Nc3cnn(CC)c3)nn3cccc23)c1 [Example 46, N-(4-chloro-3-((2-((1-ethyl-1H-pyrazol-4-yl)amino)pyrrolo[2,1-f][1,2,4]triazin-4-yl)oxy)phenyl)acrylamide]",6.57,7.25
"C=CC(=O)Nc1cc(Oc2nc(Nc3cnn(CC)c3)nn3cccc23)ccc1C [Example 47, N-(5-((2-((1-ethyl-1H-pyrazol-4-yl)amino)pyrrolo[2,1-f][1,2,4]triazin-4-yl)oxy)-2-methylphenyl)acrylamide]",7.28,7.89
"C=CC(=O)Nc1cc(Oc2nc(Nc3cnn(CC(F)F)c3)nn3cccc23)ccc1C [Example 48, N-(5-((2-((1-(2,2-difluoroethyl)-1H-pyrazol-4-yl)amino)pyrrolo[2,1-f][1,2,4]triazin-4-yl)oxy)-2-methylphenyl)acrylamide]",7.13,7.86
"CCC#CC(=O)Nc1ccc(F)c(Oc2nc(Nc3cnn(CC(F)F)c3)nn3cccc23)c1 [Example 49, N-(3-((2-((1-(2,2-difluoroethyl)-1H-pyrazol-4-yl)amino)pyrrolo[2,1-f][1,2,4]triazin-4-yl)oxy)-4-fluorophenyl)pent-2-ynamide]",7.52,< 6.40
